Assay results taken from paper PMC7439407 (Science Advances, 2020).

Target: arginine repressor ArgR
Assay: SPR
Type: binding, Staphylococcus aureus

O=c1oc2ccccc2c(O)c1C(c1ccc(Cl)c(Cl)c1)c1c(O)c2ccccc2oc1=O [DCH, 3,3′-(3,4-dichlorobenzylidene)-bis-(4-hydroxycoumarin)] showed a Kd of 82 nM.
